In patent US10844032B2, “Substituted benzofuran, benzothiophene and indole Mcl-1 inhibitors” (Vanderbilt University, priority 2012, dated 2020):
pKi: −log10 of the molar value.

Biological target: recombinant Mcl-1 (residues 172-327) (Homo sapiens (Human), UniProt Q07820)
Assay: Bak peptide fluorescence polarization anisotropy competition assay, Mcl-1
Format: binding
Details: Table 2, Ki range; FITC-Bak peptide 10 nM, Mcl-1 14 nM; read-out: Ki for inhibition of Mcl-1

recombinant Mcl-1 (residues 172-327), sequence (Q07820 172-327): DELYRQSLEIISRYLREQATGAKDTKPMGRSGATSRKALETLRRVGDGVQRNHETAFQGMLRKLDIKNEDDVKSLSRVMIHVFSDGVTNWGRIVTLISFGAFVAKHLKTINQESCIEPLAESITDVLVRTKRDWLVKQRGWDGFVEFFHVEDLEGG

Row | pKi | Compound
1 | ≥ 7.00 | COCc1nn(C)c(C)c1-c1cccc2c(CCCOc3cc(C)c(Cl)c(C)c3)c(C(=O)NS(=O)(=O)c3ccccc3)[nH]c12 [Example 130, 3-(3-(4-chloro-3,5-dimethylphenoxy)propyl)-7-(3-(methoxymethyl)-1,5-dimethyl-1H-pyrazol-4-yl)-N-(phenylsulfonyl)-1H-indole-2-carboxamide]

Same assay, conditions: read-out: Ki for inhibition of Mcl-1

Row | pKi | Compound
2 | 6.30 to 6.52 | Cc1cc(OCCCc2c(C(=O)NS(=O)(=O)c3cccnc3)[nH]c3ccccc23)cc(C)c1Cl [Example 133, 3-(3-(4-chloro-3,5-dimethylphenoxy)propyl)-N-(pyridin-3-ylsulfonyl)-1H-indole-2-carboxamide]
3 | 6.30 to 6.52 | Cc1cc(OCCCc2c(C(=O)NS(=O)(=O)c3ccncc3)[nH]c3ccccc23)cc(C)c1Cl [Example 134, 3-(3-(4-chloro-3,5-dimethylphenoxy)propyl)-N-(pyridin-4-ylsulfonyl)-1H-indole-2-carboxamide]
4 | 6.52 to 7.00 | Cc1ccccc1S(=O)(=O)NC(=O)c1[nH]c2ccccc2c1CCCOc1cc(C)c(Cl)c(C)c1 [Example 137, 3-(3-(4-chloro-3,5-dimethylphenoxy)propyl)-N-(o-tolylsulfonyl)-1H-indole-2-carboxamide]
5 | 6.00 to 6.30 | Cc1cc(OCCCc2c(C(=O)NS(=O)(=O)CCc3ccccc3)[nH]c3ccccc23)cc(C)c1Cl [Example 140, 3-(3-(4-chloro-3,5-dimethylphenoxy)propyl)-N-(phenethylsulfonyl)-1H-indole-2-carboxamide]
6 | 6.30 to 6.52 | Cc1cc(OCCCc2c(C(=O)NS(=O)(=O)c3ccc(OCc4ccccc4)nc3)[nH]c3ccccc23)cc(C)c1Cl [Example 144, N-((6-(benzyloxy)pyridin-3-yl)sulfonyl)-3-(3-(4-chloro-3,5-dimethylphenoxy)propyl)-1H-indole-2-carboxamide]
7 | 5.00 to 6.00 | Cc1cc(OCCCc2c(C(=O)NS(=O)(=O)CCCNC3CCCCC3)[nH]c3ccccc23)cc(C)c1Cl [Example 145, 3-(3-(4-chloro-3,5-dimethylphenoxy)propyl)-N-((3-(cyclohexylamino)propyl)sulfonyl)-1H-indole-2-carboxamide]
8 | 6.52 to 7.00 | Cc1cc(OCCCc2c(C(=O)NS(=O)(=O)CCNC(=O)c3ccoc3C)[nH]c3ccccc23)cc(C)c1Cl [Example 151, 3-(3-(4-chloro-3,5-dimethylphenoxy)propyl)-N-((2-(2-methylfuran-3-carboxamido)ethyl)sulfonyl)-1H-indole-2-carboxamide]
9 | 5.00 to 6.00 | Cc1cc(OCCCc2c(C(=O)NS(=O)(=O)CCNC(=O)c3ccncc3)[nH]c3ccccc23)cc(C)c1Cl [Example 153, 3-(3-(4-chloro-3,5-dimethylphenoxy)propyl)-N-((2-(isonicotinamido)ethyl)sulfonyl)-1H-indole-2-carboxamide]
10 | 6.00 to 6.30 | Cc1cc(OCCCc2c(C(=O)NS(=O)(=O)CCNC(=O)c3ccno3)[nH]c3ccccc23)cc(C)c1Cl [Example 154, N-(2-(N-(3-(3-(4-chloro-3,5-dimethylphenoxy)propyl)-1H-indole-2-carbonyl)sulfamoyl)ethyl)isoxazole-5-carboxamide]
11 | 6.00 to 6.30 | Cc1ccoc1C(=O)NCCS(=O)(=O)NC(=O)c1[nH]c2ccccc2c1CCCOc1cc(C)c(Cl)c(C)c1 [Example 156]
12 | 6.52 to 7.00 | Cc1ccc(C(=O)NCCS(=O)(=O)NC(=O)c2[nH]c3ccccc3c2CCCOc2cc(C)c(Cl)c(C)c2)o1 [Example 157, 3-(3-(4-chloro-3,5-dimethylphenoxy)propyl)-N-((2-(5-methylfuran-2-carboxamido)ethyl)sulfonyl)-1H-indole-2-carboxamide]
13 | 6.52 to 7.00 | Cc1cc(C(=O)NCCS(=O)(=O)NC(=O)c2[nH]c3ccccc3c2CCCOc2cc(C)c(Cl)c(C)c2)c(C)o1 [Example 159, 3-(3-(4-chloro-3,5-dimethylphenoxy)propyl)-N-((2-(2,5-dimethylfuran-3-carboxamido)ethyl)sulfonyl)-1H-indole-2-carboxamide]

The remaining lines, values behind:

Row | Compound | pKi
14 | COCc1nn(C)c(C)c1-c1cccc2c(CCCOc3cc(C)c(Cl)c(C)c3)c(C(=O)NS(=O)(=O)c3ccccc3)n(Cc3cccnc3)c12 [Example 128, 3-(3-(4-Chloro-3,5-dimethylphenoxy)propyl)-7-(3-(methoxymethyl)-1,5-dimethyl-1H-pyrazol-4-yl)-N-(phenylsulfonyl)-1-(pyridin-3-ylmethyl)-1H-indole-2-carboxamide] | 6.52 to 7.00
15 | COCc1nn(C)c(C)c1-c1cccc2c(CCCOc3cc(C)c(Cl)c(C)c3)c(C(=O)NS(=O)(=O)c3ccccc3)n(C)c12 [Example 129, 3-(3-(4-chloro-3,5-dimethylphenoxy)propyl)-7-(3-(methoxymethyl)-1,5-dimethyl-1H-pyrazol-4-yl)-1-methyl-N-(phenylsulfonyl)-1H-indole-2-carboxamide] | 6.52 to 7.00
16 | Cc1cc(OCCCc2c(C(=O)NS(=O)(=O)c3ccc(Oc4ccccc4)cc3)[nH]c3ccccc23)cc(C)c1Cl [Example 132, 3-(3-(4-chloro-3,5-dimethylphenoxy)propyl)-N-((4-phenoxyphenyl)sulfonyl)-1H-indole-2-carboxamide] | 6.30 to 6.52
17 | Cc1cc(OCCCc2c(C(=O)NS(=O)(=O)c3ccnc(Cl)c3)[nH]c3ccccc23)cc(C)c1Cl [Example 135, 3-(3-(4-chloro-3,5-dimethylphenoxy)propyl)-N-((2-chloropyridin-4-yl)sulfonyl)-1H-indole-2-carboxamide] | 6.30 to 6.52
18 | Cc1cc(OCCCc2c(C(=O)NS(=O)(=O)c3ccc(OCc4ccccc4)cc3)[nH]c3ccccc23)cc(C)c1Cl [Example 136, N-((4-(benzyloxy)phenyl)sulfonyl)-3-(3-(4-chloro-3,5-dimethylphenoxy)propyl)-1H-indole-2-carboxamide] | 6.52 to 7.00
19 | COc1ccc(S(=O)(=O)NC(=O)c2[nH]c3ccccc3c2CCCOc2cc(C)c(Cl)c(C)c2)c(OC)c1 [Example 138, 3-(3-(4-chloro-3,5-dimethylphenoxy)propyl)-N-((2,4-dimethoxyphenyl)sulfonyl)-1H-indole-2-carboxamide] | 6.30 to 6.52
20 | Cc1cc(OCCCc2c(C(=O)NS(=O)(=O)c3ccc(-c4ccccc4)cc3)[nH]c3ccccc23)cc(C)c1Cl [Example 139, N-([1,1′-biphenyl]-4-ylsulfonyl)-3-(3-(4-chloro-3,5-dimethylphenoxy)propyl)-1H-indole-2-carboxamide] | 6.30 to 6.52
21 | Cc1cc(OCCCc2c(C(=O)NS(=O)(=O)CCOc3ccccc3)[nH]c3ccccc23)cc(C)c1Cl [Example 141, 3-(3-(4-chloro-3,5-dimethylphenoxy)propyl)-N-((2-phenoxyethyl)sulfonyl)-1H-indole-2-carboxamide] | 6.30 to 6.52
22 | COc1ccc(Oc2cccc(S(=O)(=O)NC(=O)c3[nH]c4ccccc4c3CCCOc3cc(C)c(Cl)c(C)c3)c2)cc1 [Example 142, 3-(3-(4-chloro-3,5-dimethylphenoxy)propyl)-N-((3-(4-methoxyphenoxy)phenyl)sulfonyl)-1H-indole-2-carboxamide] | 6.30 to 6.52
23 | CCOc1ccc(Oc2ccc(S(=O)(=O)NC(=O)c3[nH]c4ccccc4c3CCCOc3cc(C)c(Cl)c(C)c3)cc2)cc1 [Example 143, 3-(3-(4-chloro-3,5-dimethylphenoxy)propyl)-N-((4-(4-ethoxyphenoxy)phenyl)sulfonyl)-1H-indole-2-carboxamide] | 6.30 to 6.52
24 | Cc1cc(OCCCc2c(C(=O)NS(=O)(=O)CCNS(=O)(=O)c3ccccc3)[nH]c3ccccc23)cc(C)c1Cl [Example 146, 3-(3-(4-chloro-3,5-dimethylphenoxy)propyl)-N-((2-(phenylsulfonamido)ethyl)sulfonyl)-1H-indole-2-carboxamide] | 6.52 to 7.00
25 | COc1ccc(S(=O)(=O)NCCS(=O)(=O)NC(=O)c2[nH]c3ccccc3c2CCCOc2cc(C)c(Cl)c(C)c2)cc1 [Example 147, 3-(3-(4-chloro-3,5-dimethylphenoxy)propyl)-N-((2-(4-methoxyphenylsulfonamido)ethyl)sulfonyl)-1H-indole-2-carboxamide] | 6.30 to 6.52
26 | Cc1cc(OCCCc2c(C(=O)NS(=O)(=O)CCNS(=O)(=O)c3ccc(Cl)c(Cl)c3)[nH]c3ccccc23)cc(C)c1Cl [Example 148, 3-(3-(4-chloro-3,5-dimethylphenoxy)propyl)-N-((2-(3,4-dichlorophenylsulfonamido)ethyl)sulfonyl)-1H-indole-2-carboxamide] | 6.52 to 7.00
27 | Cc1cc(OCCCc2c(C(=O)NS(=O)(=O)CCNS(=O)(=O)C3CCCCC3)[nH]c3ccccc23)cc(C)c1Cl [Example 149, 3-(3-(4-chloro-3,5-dimethylphenoxy)propyl)-N-((2-(cyclohexanesulfonamido)ethyl)sulfonyl)-1H-indole-2-carboxamide] | 6.52 to 7.00
28 | Cc1cc(OCCCc2c(C(=O)NS(=O)(=O)CCNC(=O)C3CCCCC3)[nH]c3ccccc23)cc(C)c1Cl [Example 150, 3-(3-(4-chloro-3,5-dimethylphenoxy)propyl)-N-((2-(cyclohexanecarboxamido)ethyl)sulfonyl)-1H-indole-2-carboxamide] | 6.52 to 7.00
29 | Cc1cc(OCCCc2c(C(=O)NS(=O)(=O)CCNC(=O)CC3CCCCC3)[nH]c3ccccc23)cc(C)c1Cl [Example 152, 3-(3-(4-chloro-3,5-dimethylphenoxy)propyl)-N-((2-(2-cyclohexylacetamido)ethyl)sulfonyl)-1H-indole-2-carboxamide] | 5.00 to 6.00
30 | Cc1cc(OCCCc2c(C(=O)NS(=O)(=O)CCNC(=O)c3cccnc3)[nH]c3ccccc23)cc(C)c1Cl [Example 155, 3-(3-(4-chloro-3,5-dimethylphenoxy)propyl)-N-((2-(nicotinamido)ethyl)sulfonyl)-1H-indole-2-carboxamide] | 5.00 to 6.00
31 | Cc1cc(OCCCc2c(C(=O)NS(=O)(=O)CCNC(=O)c3ccoc3)[nH]c3ccccc23)cc(C)c1Cl [Example 158, 3-(3-(4-chloro-3,5-dimethylphenoxy)propyl)-N-((2-(furan-3-carboxamido)ethyl)sulfonyl)-1H-indole-2-carboxamide] | 6.52 to 7.00
32 | Cc1cc(OCCCc2c(C(=O)NS(=O)(=O)CCNC(=O)c3ccccc3F)[nH]c3ccccc23)cc(C)c1Cl [Example 160, 3-(3-(4-chloro-3,5-dimethylphenoxy)propyl)-N-((2-(2-fluorobenzamido)ethyl)sulfonyl)-1H-indole-2-carboxamide] | 6.30 to 6.52
